Experimental findings from patent US9351971B2, “Substituted 2,2′-biphenazines for treating diseases” (Eutropics Pharmaceuticals, Inc., priority 2010, dated 2016) are described below.

Some results are limits rather than exact numbers.

The target of one assay is T1, Bcl-xL (Homo sapiens, UniProt Q07817).
T1 construct: made in house; host or cells: E. coli
As to the kind of experiment: Fluorescence polarization assay, Bim BH3 peptide binding to GST-Bcl-xL. Conditions: Bim-BH3-FITC peptide, read-out: IC50, inhibition of Bim-BH3 peptide binding to Bcl-xL.
Description: A nineteen amino acid peptide, corresponding to the BH3 domain of Bim, with the sequence FITC-GGGIAQELRRIGDEFNAY (SEQ ID NO: 1) was labeled with the tluorophore FITC according to the manufacturer's instructions (Molecular Probes, Eugene, Oreg.). This sequence was identified as being able to bind to purified Bcl-xL protein (Sattler et al. (1997) Science 275(5302): 983-86) and to have biological activity in cells (Holinger et al. J. Biol. Chem. 274; 13298-1330).
In addition, recombinant GST -Mcl-1 and GST-Bcl-xL fusion proteins were generated in E.coli and purified using glutathione-sepharose beads using conventional techniques known to those skilled in the fields of biochemistry and molecular biology, (methods for preparation are described in Strategies for Protein Purification and Characterization, Marshak, D, Kadonga, J, Burgess R, Knuth, M, Brennan, W, Sue-Hwa, L, CSH press, Cold Spring Harbor, N.Y.). Binding of the recombinant proteins to the fluorescent Bim BH3 domain was confirmed by titration of increasing concentrations of the recombinant proteins against a constant amount of labeled Bim peptide (16.65 nM). Quantitation of binding was accomplished by FP assay with mP measurements made on the Analyst-GT reader (Molecular Devices, Sunnyvale, Calif.).
Further, the ability of compound A to disrupt the interaction between the fluorescent Bim BH3 peptide and the two fusion proteins was assessed using a fluorescence polarization assay. […]
(§1) Experiments are performed using the fluorescence polarization assay as described in Example 2. […] The IC50 for blocking each BH3 peptide from Mcl-1 are assessed using FP, as described in Example 2.
as §1

The test system of a further assay is NCI H929 tumors. Briefly: NCI H929 human myeloma xenograft model in mice. The format is in vivo, mouse. Conditions: vehicle 2300 mm^3. The method, then: Cell Culture: Tumor cell line NCI H929 was cultured according to ATCC recommendations in […] containing 10% fetal bovine serum and pen-strep. On the day of implantation, cells were washed 1× with phosphate buffered saline (PBS) and harvested via centrifugation. Cells were pelleted (5 min at 1000 rpm, RT) then resuspended in serum-free matrigel and kept on ice until implantation.
Tumor Cell Implantation: The cell line was implanted via subcutaneous injection on the right rear flank at a volume of 200 μl containing 3×10^7 cells per mouse; the injection site was cleaned using alcohol before and after injection to prevent any infection.
Tumor Assessment: Beginning 1 week post cell implantation all animals were weighed and tagged and tumors were measured and body weights taken 3 times weekly (length×width×height) on Monday, Wednesday, and Friday for the duration of study. Once an average tumor volume of 100-200 mm^3 was reached, animals were randomized and placed into 4 treatment groups of a minimum of 10 mice per group based on tumor size. Randomization was determined by tumor volume (length×width×height)[…] for all of the mice and average volume was calculated using a average function in Excel (Microsoft Professional).
Treatment: The study involved 4 groups of 10 animals per group. Animals in all dose groups were weighed on days of tumor measurement. All doses were administered i.p. at 10 mL/kg. The Bortezormib (1 mg/kg) group was once every 3 days for 15 days. The mice receiving vehicle and compound II-19 were dosed every second day. Compound II-19 was formulated in 1% DMSO, 10 mM Tris pH 8, 30% hydroxypropyl-beta-cyclodextrin; this vehicle was used as the “vehicle” control. Bortezomib was formulated in 30% propylene glycol, 5% Tween 80, 3.3% dextrose in water, pH 4, 1% DMSO.

The test system of assay [1] is NCI-H929 multiple myeloma cell line. Briefly: Cell viability MTS assay, NCI-H929. The format is cell-based. The following applies: Homo sapiens, 48 hours, read-out: EC50, cell killing in NCI-H929. The method, then:
(§2) The lymphoid derived cell lines DHL-6 and DHL-10 were obtained from Anthony Letai of the Dana Father Cancer Research Institute, Boston, Mass. The […] derived cell line NCP-H929 was obtained irons, the NIH/NCI cell repository. AML-3 cells were obtained from Dr. Michael Andreef (MD Anderson Cancer Center, Houston, Tex.). Cells were grown in RPMI 1640 medium (GIBCO-BRL) supplemented with Pen-strep-glutamine (Gibco 10378) and 5% fetal bovine serum.
(§3) Cells were expanded in tissue culture in appropriate media and then subcultured into 96-well plates at a seeding density of 20,000-40,000 cells per well, and cells were treated with one or more compounds that were titrated info appropriate medium with FCS. Cell lines were treated with compound A at concentrations ranging from 25 μM to 25 nM. The BH3-mimetic obatoclax (Nguyen M et al. (2007), Proc. Natl. Acad. Sci. USA 104:19512-19517) was also tested against the SUDHL-6, SUDHL-10, and NCI-H929 cell lines. Cells were treated for 48 hours and scored for viability using the MTS assay (Promega). Growth inhibition was indicated as a percentage of control cell growth. Growth was determined by measuring the A570 (control cells)—A570 (treated cells)/A570 (control cells). EC50 values were calculated using Graphpad Prizm software.
Background: Formazan colour is commonly taken as a measure of viable cells.

The next assay deals with SUDHL-10 cell line. Briefly: Cell viability MTS assay, SUDHL-10 (Bax/Bak deficient). The format is cell-based, human. The method, then:
as §2, §3

T1 sequence (Q07817 whole entry): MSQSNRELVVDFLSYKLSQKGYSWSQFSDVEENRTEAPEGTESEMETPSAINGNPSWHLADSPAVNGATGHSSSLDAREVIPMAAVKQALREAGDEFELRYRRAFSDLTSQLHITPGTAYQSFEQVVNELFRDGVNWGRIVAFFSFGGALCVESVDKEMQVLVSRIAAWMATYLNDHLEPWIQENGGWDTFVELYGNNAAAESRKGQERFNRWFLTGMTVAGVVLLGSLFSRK

With `COC(=O)c1ccc(O)c2nc3c(C=O)c(O)c(-c4c(O)c(C=O)c5nc6c(O)ccc(C(=O)OC)c6nc5c4O)c(O)c3nc12` [II-19, dimethyl 4,4′-diformyl-1,1′,3,3′,6,6′-hexahydroxy-[2,2′-biphenazine]-9,9′-dicarboxylate], the IC50 on Bcl-xL came to 15 nM. Moreover, the results for the “average tumor size at the end of the study” value in the assay on NCI H929 tumors (1 mg/kg i.p. every second day) and in the assay on NCI H929 tumors (3 mg/kg i.p. every second day) were 1740 mm^3 and 1600 mm^3, respectively. The EC50 in assay [1] is 8 µM; in the assay on SUDHL-10 cell line (Homo sapiens, SU-DHL10, 48 hours, MTS assay, Bax/Bak deficient cell line, read-out: EC50, cell killing in SUDHL-10) it was > 20 µM. Besides, the “activity against the Bax/Bak deficient cell line SUDHL-10 (in words)” value with SUDHL-10 cell line (cell killing, FIG. 4d) was “absence of activity”.

In general, IC50 refers to the midpoint of a concentration-inhibition curve. As usually defined, the EC50 is the concentration that produces a half-maximal response.
